From US8716316B2 (Hoffmann-La Roche Inc., priority 2009, dated 2014) come the findings set out here.

The experiment deals with T1, human mGlu5a receptor (Homo sapiens, UniProt P41594).
T1 construct: expressed in transfected cells
The experiment in a line: Intracellular Ca2+ mobilization assay. The format is cell-based. As to conditions: for Emax: HEK293, read-out: Efficacy (%); for EC50: HEK-293 cells stably transfected with human mGlu5a receptor, pre-incubation 10-30 min with test compound, then L-glutamate at EC20 (typically around 80 μM), Fluo-4AM fluorescence, read-out: EC50 (nM) mGluR5 PAM. Here is the method: A monoclonal HEK-293 cell line stably transfected with a cDNA encoding for the human mGlu5a receptor was generated; for the work with mGlu5 Positive Allosteric Modulators (PAMs), a cell line with low receptor expression levels and low constitutive receptor activity was selected to allow the differentiation of agonistic versus PAM activity. Cells were cultured according to standard protocols (Freshney, 2000) in Dulbecco's Modified Eagle Medium with high glucose supplemented with 1 mM glutamine, 10% (vol/vol) heat-inactivated bovine calf serum, Penicillin/Streptomycin, 50 μg/ml hygromycin and 15 μg/ml blasticidin (all cell culture reagents and antibiotics from Invitrogen, Basel, Switzerland).
About 24 hrs before an experiment, 5×10^4 cells/well were seeded in poly-D-lysine coated, black/clear-bottomed 96-well plates. The cells were loaded with 2.5 μM Fluo-4AM in loading buffer (1×HBSS, 20 mM HEPES) for 1 hr at 37° C. and washed five times with loading buffer. The cells were transferred into a Functional Drug Screening System 7000 (Hamamatsu, Paris, France), and 11 half logarithmic serial dilutions of test compound at 37° C. were added and the cells were incubated for 10-30 min. with on-line recording of fluorescence. Following this pre-incubation step, the agonist L-glutamate was added to the cells at a concentration corresponding to EC20 (typically around 80 μM) with on-line recording of fluorescence; in order to account for day-to-day variations in the responsiveness of cells, the EC20 of glutamate was determined immediately ahead of each experiment by recording of a full dose-response curve of glutamate.
Responses were measured as peak increase in fluorescence minus basal (i.e. fluorescence without addition of L-glutamate), normalized to the maximal stimulatory effect obtained with saturating concentrations of L-glutamate. Graphs were plotted with the % maximal stimulatory using XLfit, a curve fitting program that iteratively plots the data using Levenburg Marquardt algorithm. The single site competition analysis equation used was y=A+((B−A)/(1+((x/C)D))), where y is the % maximal stimulatory effect, A is the minimum y, B is the maximum y, C is the EC50, x is the log 10 of the concentration of the competing compound and D is the slope of the curve (the Hill Coefficient). From these curves the EC50 (concentration at which half maximal stimulation was achieved), the Hill coefficient as well as the maximal response in % of the maximal stimulatory effect obtained with saturating concentrations of L-glutamate were calculated.
A depression of the signal observed after addition of the EC20 concentration of L-glutamate was indicative of an inhibitory activity of the test compound.
On the technique in general: Calcium flux is commonly read through the fluorescence of an indicator in the cells.

The mark [1] stands for this setting: maximal response in % of the maximal stimulatory effect obtained with saturating concentrations of L-glutamate, HEK-293 human mGlu5a cells, L-glutamate at EC20.

T1 sequence (P41594 21-1180 isoform P41594-2 limits assumed): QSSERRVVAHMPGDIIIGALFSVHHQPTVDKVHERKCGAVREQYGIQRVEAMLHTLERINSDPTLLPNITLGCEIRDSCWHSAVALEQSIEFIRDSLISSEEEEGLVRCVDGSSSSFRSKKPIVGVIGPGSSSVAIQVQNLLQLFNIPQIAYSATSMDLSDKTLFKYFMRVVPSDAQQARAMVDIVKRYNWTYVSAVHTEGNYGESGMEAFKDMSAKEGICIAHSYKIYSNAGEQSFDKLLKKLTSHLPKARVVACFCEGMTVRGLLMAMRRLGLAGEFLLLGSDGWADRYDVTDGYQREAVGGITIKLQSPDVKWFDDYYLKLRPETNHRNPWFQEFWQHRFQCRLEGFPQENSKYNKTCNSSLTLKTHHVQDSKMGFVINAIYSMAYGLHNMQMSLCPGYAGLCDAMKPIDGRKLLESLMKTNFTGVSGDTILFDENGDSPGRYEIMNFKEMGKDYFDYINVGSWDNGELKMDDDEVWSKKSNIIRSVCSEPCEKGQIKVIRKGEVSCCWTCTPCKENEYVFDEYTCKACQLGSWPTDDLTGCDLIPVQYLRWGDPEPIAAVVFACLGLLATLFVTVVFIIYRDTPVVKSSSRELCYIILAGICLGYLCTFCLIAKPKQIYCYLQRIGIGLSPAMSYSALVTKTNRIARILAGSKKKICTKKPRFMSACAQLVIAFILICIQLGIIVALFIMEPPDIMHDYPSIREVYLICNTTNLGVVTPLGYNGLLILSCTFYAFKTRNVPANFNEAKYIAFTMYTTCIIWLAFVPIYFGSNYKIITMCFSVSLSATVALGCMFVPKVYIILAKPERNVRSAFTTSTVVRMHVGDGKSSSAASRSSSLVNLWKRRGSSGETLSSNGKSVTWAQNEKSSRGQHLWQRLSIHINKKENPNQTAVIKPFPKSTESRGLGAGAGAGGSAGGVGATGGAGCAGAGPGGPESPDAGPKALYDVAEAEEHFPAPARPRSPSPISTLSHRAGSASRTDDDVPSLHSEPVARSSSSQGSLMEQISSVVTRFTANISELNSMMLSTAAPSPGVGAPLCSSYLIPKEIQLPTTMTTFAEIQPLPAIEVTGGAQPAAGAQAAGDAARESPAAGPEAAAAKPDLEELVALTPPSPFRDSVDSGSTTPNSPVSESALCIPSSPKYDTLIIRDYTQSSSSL

As usually defined, the EC50 is the concentration at which the effect is half-maximal. In the case of `COC1CCCC(OC)C1Nc1ncc(C#Cc2ccccc2)cn1` (mixture of isomers) [Example 5, (2,6-dimethoxy-cyclohexyl)-(5-phenylethynyl-pyrimidin-2-yl)-amine], the EC50 was 345 nM. The Emax under setting [1] was found to be 105%.

As to `OC1CCCCC1Nc1ncc(C#Cc2ccccc2)cn1` (mixture of isomers) [Example 10, 2-(5-phenylethynyl-pyrimidin-2-ylamino)-cyclohexanol], the EC50 was 340 nM. In addition, the Emax under setting [1] came to 72%.

Turning to `OC1CCC(Nc2ncc(C#Cc3ccccc3)cn2)C1` (mixture of isomers) [Example 11, 3-(5-phenylethynyl-pyrimidin-2-ylamino)-cyclopentanol], the EC50 stood at 322 nM. For the same compound, the Emax under setting [1] is 78%.

`OC1CCCC1Nc1ncc(C#Cc2ccccc2)cn1` (mixture of isomers) [Example 12, 2-(5-phenylethynyl-pyrimidin-2-ylamino)-cyclopentanol]: the EC50 came out at 560 nM. In addition, under setting [1], the Emax came to 80%.

Take `CC1(C)CC(Nc2ncc(C#Cc3ccccc3)cn2)CCO1` (racemic) [Example 3, rac-(2,2-Dimethyl-tetrahydro-pyran-4-yl)-(5-phenylethynyl-pyrimidin-2-yl)-amine]: the EC50 was 172 nM. Moreover, the Emax under setting [1] was 89%.

For the compound `C(#Cc1cnc(N[C@H]2C[C@@H]3CC[C@H]2O3)nc1)c1ccccc1` (racemic) [Example 4, rac-7-Oxa-bicyclo[2.2.1]hept-2-yl-(5-phenylethynyl-pyrimidin-2-yl)-amine], the EC50 was found to be 195 nM. Moreover, the Emax under setting [1] worked out at 113%.

Consider `CC1(C)CC(Nc2ncc(C#Cc3ccccc3)cn2)CCC1O` (racemic) [Example 16, 2,2-Dimethyl-4-(5-phenylethynyl-pyrimidin-2-ylamino)-cyclohexanol], for which the EC50 worked out at 324 nM. Moreover, the Emax under setting [1] stood at 113%.

`OC1CCC(Oc2ncc(C#Cc3ccccc3)cn2)CC1` (racemic) [Example 22, rac-4-(5-Phenylethynyl-pyrimidin-2-yloxy)-cyclohexanol]: the EC50 turned out to be 168 nM. In addition, under setting [1], the Emax was 121%.

Regarding `OC1CCC(Oc2ncc(C#Cc3ccccc3)cc2F)CC1` (racemic) [Example 27, rac-4-(3-Fluoro-5-phenylethynyl-pyridin-2-yloxy)-cyclohexanol], the EC50 is 200 nM. Further, the Emax under setting [1] stood at 90%.

On to `CC1CCN(Cc2ccc(C#Cc3ccccc3)cn2)C1=O` (racemic) [Example 39, rac-3-Methyl-1-(5-phenylethynyl-pyridin-2-ylmethyl)-pyrrolidin-2-one], for which the EC50 turned out to be 93 nM. Further, under setting [1], the Emax worked out at 120%.

For `CC(c1ccc(C#Cc2ccccc2)cn1)N1CCOC1=O` (racemic) [Example 41, rac-3-[1-(5-Phenylethynyl-pyridin-2-yl)-ethyl]-oxazolidin-2-one], the EC50 came to 94 nM. Besides, the Emax under setting [1] was determined as 59%.

As for `CC1(C)CC(Nc2ncc(C#Cc3ccccc3)cn2)CCC1O` (single isomer, unassigned) [Example 17, (1S,4S or 1R,4R)-2,2-Dimethyl-4-(5-phenylethynyl-pyrimidin-2-ylamino)-cyclohexanol], the EC50 turned out to be 94 nM. In addition, the “Efficacy (%)” value under setting [1] is 93%.

On to `C(#Cc1cnc(NC2CCCC2)nc1)c1ccccc1` [Example 1, Cyclopentyl-(5-phenylethynyl-pyrimidin-2-yl)-amine], for which the EC50 came to 26 nM. Further, the Emax under setting [1] came to 40%.

On to `C(#Cc1cnc(NC2CCOCC2)nc1)c1ccccc1` [Example 2, (5-Phenylethynyl-pyrimidin-2-yl)-(tetrahydro-pyran-4-yl)-amine], for which the EC50 was 65 nM. Moreover, under setting [1], the Emax was found to be 46%.

As to `OC[C@H]1CC[C@H](Nc2ncc(C#Cc3ccccc3)cn2)CC1` [Example 6, trans-[4-(5-Phenylethynyl-pyrimidin-2-ylamino)-cyclohexyl]-methanol], the EC50 came to 844 nM. In addition, under setting [1], the Emax was found to be 147%.

Turning to `O[C@H]1CC[C@H](Nc2ncc(C#Cc3ccccc3)cn2)CC1` [Example 7, trans-4-(5-Phenylethynyl-pyrimidin-2-ylamino)-cyclohexanol], the concentration for a half-maximal effect (EC50) amounted to 179 nM. For the same compound, the Emax under setting [1] came to 100%.

Take `C(#Cc1ccc(NC2CCCC2)nc1)c1ccccc1` [Example 13, Cyclopentyl-(5-phenylethynyl-pyridin-2-yl)-amine]: the EC50 was 43 nM. Further, the Emax under setting [1] amounted to 43%.

With `C(#Cc1ccc(NC2CCOCC2)nc1)c1ccccc1` [Example 14, (5-Phenylethynyl-pyridin-2-yl)-(tetrahydro-pyran-4-yl)-amine], the EC50 amounted to 110 nM. For the same compound, the Emax under setting [1] came out at 59%.

Turning to `C(#Cc1cnc(NC2CCCCC2)nc1)c1ccccc1` [Example 15, Cyclohexyl-(5-phenylethynyl-pyrimidin-2-yl)-amine], the EC50 amounted to 52 nM. Moreover, under setting [1], the Emax was 112%.

Regarding `O[C@H]1CC[C@H](Nc2ncc(C#Cc3ccccc3)cc2F)CC1` [Example 18, trans-4-(3-Fluoro-5-phenylethynyl-pyridin-2-ylamino)-cyclohexanol], the EC50 worked out at 192 nM. Also, the Emax under setting [1] was 116%.

As for `C[C@H]1CC[C@H](Nc2ncc(C#Cc3ccccc3)cn2)CC1` [Example 19, trans-(4-Methyl-cyclohexyl)-(5-phenylethynyl-pyrimidin-2-yl)-amine], the EC50 was found to be 75 nM. Moreover, the Emax under setting [1] was found to be 55%.

As to `C(#Cc1cnc(NCC2CCOCC2)nc1)c1ccccc1` [Example 20, (5-Phenylethynyl-pyrimidin-2-yl)-(tetrahydro-pyran-4-ylmethyl)-amine], the EC50 was found to be 206 nM. In addition, the Emax under setting [1] was found to be 80%.

As to `CC1(CNc2ncc(C#Cc3ccccc3)cn2)COC1` [Example 21, (3-Methyl-oxetan-3-ylmethyl)-(5-phenylethynyl-pyrimidin-2-yl)-amine], the EC50 turned out to be 78 nM. Moreover, the Emax under setting [1] came out at 45%.

Consider `O[C@H]1CC[C@H](Oc2ncc(C#Cc3ccccc3)cn2)CC1` [Example 23, trans-4-(5-Phenylethynyl-pyrimidin-2-yloxy)-cyclohexanol], for which the EC50 was 110 nM. Also, the Emax under setting [1] is 94%.

Consider `CC1(COc2ncc(C#Cc3ccccc3)cn2)COC1` [Example 24, 2-(3-Methyl-oxetan-3-ylmethoxy)-5-phenylethynyl-pyrimidine], for which the EC50 worked out at 101 nM. The Emax under setting [1] was found to be 88%.

For `O[C@H]1C[C@H](COc2ncc(C#Cc3ccccc3)cn2)C1` [Example 25, trans-3-(5-Phenylethynyl-pyrimidin-2-yloxymethyl)-cyclobutanol], the EC50 was 291 nM. Besides, the Emax under setting [1] turned out to be 133%.

Regarding `OC[C@H]1C[C@H](Oc2ncc(C#Cc3ccccc3)cn2)C1` [Example 26, trans-[3-(5-Phenylethynyl-pyrimidin-2-yloxy)-cyclobutyl]-methanol], the 50% effective concentration (EC50) is 99 nM. In addition, under setting [1], the Emax amounted to 117%.

As to `C(#Cc1ccc(OC2CCCCC2)nc1)c1ccccc1` [Example 28, 2-Cyclohexyloxy-5-phenylethynyl-pyridine], the EC50 was 45 nM. Further, the Emax under setting [1] is 61%.

As for `CC1(COc2ncc(C#Cc3ccccc3)cc2F)COC1` [Example 29, 3-Fluoro-2-(3-methyl-oxetan-3-ylmethoxy)-5-phenylethynyl-pyridine], the EC50 turned out to be 135 nM. Moreover, the Emax under setting [1] was found to be 71%.

For `O=C1COCCN1Cc1ccc(C#Cc2ccccc2)cn1` [Example 30, 4-(5-Phenylethynyl-pyridin-2-ylmethyl)-morpholin-3-one], the EC50 amounted to 83 nM. Also, the Emax under setting [1] was 121%.

As for `O=C1OCCN1Cc1ccc(C#Cc2ccccc2)cn1` [Example 31, 3-(5-Phenylethynyl-pyridin-2-ylmethyl)-oxazolidin-2-one], the EC50 is 56 nM. In addition, the Emax under setting [1] was determined as 122%.

With `O=C1CCCCN1Cc1ccc(C#Cc2ccccc2)cn1` [Example 32, 1-(5-Phenylethynyl-pyridin-2-ylmethyl)-piperidin-2-one], the EC50 was determined as 268 nM. Under setting [1], the Emax was found to be 145%.
